According to US9889180B2, “Method of treating cancer” (Agency for Science, Technology and Research, priority 2012, dated 2018):

What was measured:
DU145 cells [1] = test: FACS sub-G1 DNA analysis (apoptosis) in DU145 cells; assay type: cell-based, human; conditions: for apoptotic effect (sub-G1) / apoptosis (sub-G1) with other epigenetic compounds: in combination with IFN-γ; for apoptotic effect (sub-G1): treated for either 3 days or 10 days; for apoptosis (sub-G1) with other epigenetic compounds: compared with DZNep
Protocol: For the assessment of cell death, cells were harvested in 70% ethanol. Fixed cells were stained with Propidium Iodide (P.I) (50 μg/mL). The stained cells were analyzed for DNA content by FACS in a FACSCalibur (Becton Dickinson Instrument). % of cell death was defined as the sub-G1 population quantified using the CellQuest software (Becton Dickinson). The percentage of dead cells or sub-G1 cells was calculated by comparing the results of each experiment to the results from DMSO-treated cells. Each assay was repeated a minimum of three times, with results reported as means+s.e.m.

solid tumor cells = conditions: very recent report; cited from earlier work
IFNGR1 promoter = test: ChIP analysis of EZH2 and H3K27me3 enrichments at IFNGR1 in DU145 cells; assay type: cell-based, human; conditions: GSK126 (5 μM), 3 days, compared with DZNep
Protocol: ChIP assays were performed as described previously. […] The immunoprecipitated DNA was quantified by quantitative real-time PCR using KAPA SyBr Fast qPCR kit (KAPA biosystems) with the specific ChIP primers as listed in the Table 4. Quantification of binding to the promoter was defined as the percentage of the whole cell lysate input DNA. The fold enrichment was derived by normalizing the specific antibody enriched against the IgG-enriched chromatin. CNR1 serves a positive control and Actin is a negative control. Significance of target genes was assessed relative to Actin level.

[2] = test system: IFNGR1 expression and IFN-γ-STAT1 signaling; test: qRT-PCR and western blot of IFNGR1 expression and IFN-γ signaling in DU145 cells; assay type: cell-based, human
Protocol: All cells were maintained at 37° C. with 5% CO2. Cells were grown until they were 80% confluent before they are treated the respective drugs. For drug treatment, DZNep and GSK126 were purchased from Pharmaron Inc. (Beijing, China), GSK343 was kindly provided by Chemical Probes of University of Toronto, 5′Aza, TSA and human recombinant IFN-γ was purchased from Sigma. For rescue experiment using IFNGR1 blocking antibody, the neutralizing antibody that specifically targets IFNGR1 (anti-CD119, GIR-208, BD Pharmingen) was added to the medium 4 hour prior to the addition of DZNep or/and IFN-γ. Total RNA was isolated by using Trizol (Invitrogen) and purified with the RNeasy Mini Kit (Qiagen). The microarray hybridization was performed using the Illumina Gene Expression Sentrix BeadChip HumanRef-8_V3, and data analysis was performed by GeneSpring software from Agilent Technologies as described previously. The analyzed gene sets by GeneSpring were next subjected to Ingenuity Pathway Analysis (IPA) for gene ontology (GO) analysis. Reverse transcription and quantitative PCR assays were performed using High Capacity cDNA Archive kit and KAPA SyBr Fast qPCR kit (KAPA biosystems). For quantification of mRNA levels, 18S level was used as an internal control. All reactions were analyzed in an Applied Biosystems PRISM 7500 Fast Real-Time PCR system in 96-well plate format. Western Blotting was performed as described previously. Briefly, Cells were scraped, collected, and lysed in RIPA buffer. To release histones from chromatin, cell lysates were further sonicated for 15 sec using a XL2000 Microson Ultrasonic Processor (Misonix). Equal amounts of protein (30 μg) were separated on SDS-polyacrylamide gels and transferred to PVDF membranes. The blots were probed with antibodies against EED (07-368), SUZ12 (07-379), trimethylated H3-K27 (07-449), Acetyl-Histone H3 (06-599), which were purchased from Upstate Biotechnology. IFNGR1 (GIR-94) and anti-IFI16 (1G7) were purchased from Santa Cruz. EZH2 phospho S21 (00388) was purchased from Bethyl Laboratories. EZH2 (AC22), P110α PI3K, p-AKT (T308), p-AKT (S473), pSTAT1Y701, total STAT1, Histone H3 (3H1), Beclin-1 and cleaved PARP were purchased from Cell Signaling. Myc and Actin were purchased from Roche Applied Science and Sigma-Aldrich, respectively.

EZH2/PRC2 and H3K27me3 = biological target: T1, EZH2/PRC2 and H3K27me3 (Homo sapiens, UniProt Q15910); test: Western blot of PRC2 proteins and H3K27me3 in DU145 cells; assay type: cell-based
T1 construct: endogenous in cells; host or cells: DU145 (named by the earlier reading of the assay)
Protocol: Western Blotting was performed as described previously. Briefly, Cells were scraped, collected, and lysed in RIPA buffer. To release histones from chromatin, cell lysates were further sonicated for 15 sec using a XL2000 Microson Ultrasonic Processor (Misonix). Equal amounts of protein (30 μg) were separated on SDS-polyacrylamide gels and transferred to PVDF membranes. The blots were probed with antibodies against EED (07-368), SUZ12 (07-379), trimethylated H3-K27 (07-449), Acetyl-Histone H3 (06-599), which were purchased from Upstate Biotechnology. IFNGR1 (GIR-94) and anti-IFI16 (1G7) were purchased from Santa Cruz. EZH2 phospho S21 (00388) was purchased from Bethyl Laboratories. EZH2 (AC22), P110α PI3K, p-AKT (T308), p-AKT (S473), pSTAT1Y701, total STAT1, Histone H3 (3H1), Beclin-1 and cleaved PARP were purchased from Cell Signaling. Myc and Actin were purchased from Roche Applied Science and Sigma-Aldrich, respectively.

LNCaP cells = test: Cell proliferation assay (CellTiter-Glo) in LNCaP cells; assay type: cell-based, human; conditions: siRNA knockdown combined with IFN-γ treatment
Protocol: (§1) The optimal cell seeding was determined empirically for all cell lines by examining the growth of a wide range of seeding densities in a 96-well format to identify conditions that permitted proliferation for 6 days. Cells were then plated at the optimal seeding density 24 h before siRNA or drug treatment in triplicate. Plates were incubated for 6 days at 37° C. in 5% CO2. Cells were then lysed with CellTiter-Glo (CTG) (Promega) and chemiluminescent signal was detected with a microplate reader (TECAN). In addition, an untreated plate of cells was harvested at the time of drug or siRNA addition (T0) to quantify the starting number of cells. CTG values obtained after the 6 day treatment were expressed as percentages of the T0 value and plotted against time of treatment. Cells received 1-5 μM of DZNep, 25 ng/mL of IFN-γ and 0.1-2.5 μM of GSK343 unless stated otherwise for 72-96 h.

DU145 cells [3] = test: Cell proliferation assay (CellTiter-Glo) in DU145 cells; assay type: cell-based, human; conditions: siRNA knockdown combined with IFN-γ treatment
Protocol: as §1

DU145 xenograft tumor = DU145 xenograft tumor growth in male athymic nude mice; assay type: in vivo; conditions: IFN-γ 1×10^7 IU/kg i.p. daily, DZNep 1 mg/kg s.c. every alternating day, 38 days
Protocol: For in vivo evaluation of DZNep and IFN-γ treatment, the experiments were conducted in compliance with animal protocol approved by the ASTAR-Biopolis Institutional Animal Care and Use Committee (IACUC) of Singapore. DU145 cells were subcutaneously injected into 6-8 week male nude mice at 5×10^6 cells, followed by treatment with vehicle, IFN-γ (1×10^7 IU/kg) alone, DZNep (1 mg/kg) alone or combined DZNep (1 mg/kg) with IFN-γ (1×10^7IU/kg). IFN-γ was administered by intraperitoneal injection daily and DZNep by subcutaneous injection on every alternating day over a duration of 38 days after average tumor size reached around 150 mm^3. Tumors were measured by vernier calliper at least twice per week and tumors volume was calculated with formula: V=W*W*L/2. Each xenograft treatment arm comprised of 5-8 mice. Differences among groups and treatments were determined by ANOVA followed by t tests. (***p<0.001, n.s=not significant) Error bars represent means±s.e.m

T1 sequence (Q15910 whole entry): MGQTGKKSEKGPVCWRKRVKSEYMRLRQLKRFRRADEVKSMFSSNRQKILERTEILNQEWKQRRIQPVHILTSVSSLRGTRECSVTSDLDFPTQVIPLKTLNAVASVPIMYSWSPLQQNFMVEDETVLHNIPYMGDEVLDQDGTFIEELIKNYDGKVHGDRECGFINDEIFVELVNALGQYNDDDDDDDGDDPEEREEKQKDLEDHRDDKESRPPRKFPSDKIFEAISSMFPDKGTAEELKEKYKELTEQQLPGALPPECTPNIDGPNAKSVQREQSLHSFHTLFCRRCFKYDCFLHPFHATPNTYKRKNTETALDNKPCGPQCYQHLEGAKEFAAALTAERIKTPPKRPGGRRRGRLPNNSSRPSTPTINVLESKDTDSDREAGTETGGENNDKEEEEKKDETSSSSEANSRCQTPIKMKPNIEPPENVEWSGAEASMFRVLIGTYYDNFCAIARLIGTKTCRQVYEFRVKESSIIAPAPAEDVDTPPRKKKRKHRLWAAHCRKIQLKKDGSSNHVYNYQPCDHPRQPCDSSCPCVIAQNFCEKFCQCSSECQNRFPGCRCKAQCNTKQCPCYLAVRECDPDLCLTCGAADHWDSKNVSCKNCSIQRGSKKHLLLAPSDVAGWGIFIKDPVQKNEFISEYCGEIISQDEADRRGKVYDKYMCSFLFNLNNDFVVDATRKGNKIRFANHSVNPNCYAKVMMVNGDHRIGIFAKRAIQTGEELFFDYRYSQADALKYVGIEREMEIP
T1 sequence (O75530 whole entry partner): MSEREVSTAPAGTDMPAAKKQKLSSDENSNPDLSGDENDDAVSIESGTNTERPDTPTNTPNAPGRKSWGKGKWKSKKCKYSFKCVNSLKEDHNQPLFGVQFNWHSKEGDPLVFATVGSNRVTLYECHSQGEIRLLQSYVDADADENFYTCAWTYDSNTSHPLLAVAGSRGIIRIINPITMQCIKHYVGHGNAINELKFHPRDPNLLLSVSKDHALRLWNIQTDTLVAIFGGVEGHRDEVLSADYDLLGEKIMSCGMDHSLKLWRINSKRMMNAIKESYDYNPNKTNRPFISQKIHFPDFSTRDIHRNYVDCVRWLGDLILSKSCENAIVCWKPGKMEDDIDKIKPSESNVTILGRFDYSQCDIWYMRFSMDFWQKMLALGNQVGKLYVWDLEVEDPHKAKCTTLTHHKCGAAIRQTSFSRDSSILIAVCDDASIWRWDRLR
T1 sequence (Q15022 whole entry partner): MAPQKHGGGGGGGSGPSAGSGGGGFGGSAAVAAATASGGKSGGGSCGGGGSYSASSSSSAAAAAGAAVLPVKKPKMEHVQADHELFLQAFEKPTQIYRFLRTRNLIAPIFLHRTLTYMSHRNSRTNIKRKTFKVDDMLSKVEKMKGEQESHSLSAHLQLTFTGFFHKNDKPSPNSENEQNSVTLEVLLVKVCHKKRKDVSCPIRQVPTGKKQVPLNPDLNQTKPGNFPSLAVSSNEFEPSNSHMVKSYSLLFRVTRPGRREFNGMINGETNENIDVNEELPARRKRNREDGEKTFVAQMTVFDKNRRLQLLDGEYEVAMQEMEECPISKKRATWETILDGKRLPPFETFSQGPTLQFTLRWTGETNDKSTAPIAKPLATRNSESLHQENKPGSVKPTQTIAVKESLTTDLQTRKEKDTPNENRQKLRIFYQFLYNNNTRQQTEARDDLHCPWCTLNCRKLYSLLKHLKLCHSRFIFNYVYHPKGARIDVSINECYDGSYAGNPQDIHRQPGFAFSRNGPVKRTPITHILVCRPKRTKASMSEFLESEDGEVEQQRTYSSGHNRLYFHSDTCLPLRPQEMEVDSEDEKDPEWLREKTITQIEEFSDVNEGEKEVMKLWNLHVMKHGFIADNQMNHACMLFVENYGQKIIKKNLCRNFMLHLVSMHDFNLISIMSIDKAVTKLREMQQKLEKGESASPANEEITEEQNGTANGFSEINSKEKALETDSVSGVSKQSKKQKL

In the case of `CC[C@H](C)n1cc(C)c2c(C(=O)NCc3c(C)cc(C)[nH]c3=O)cc(-c3ccc(N4CCNCC4)nc3)cc21` [GSK126, N-[(4,6-dimethyl-2-oxo-1,2-dihydro-3-pyridinyl)methyl]-3-methyl-1-((1S)-1-methylpropyl)-6-[6-(1-piperazinyl)-3-pyridinyl]-1H-indole-4-carboxamide], the “apoptotic effect (sub-G1)” value (DU145 cells [1]) is given as “failed to see an apoptotic effect”, the “ability to induce the loss of cell viability” value (solid tumor cells) is given as “unable to do so” and the “H3K27me3 enrichment at the IFNGR1 gene promoter” value (IFNGR1 promoter) is given as “more efficiently depleted H3K27me3”. The IFNGR1 expression ([2]; GSK126 up to 10 μM for 10 days) was “modest induction of IFNGR1”.

In the case of `CCCc1cc(C)[nH]c(=O)c1CNC(=O)c1cc(-c2ccnc(N3CCN(C)CC3)c2)cc2c1cnn2C(C)C` [GSK343, N-[(6-methyl-2-oxo-4-propyl-1,2-dihydropyridin-3-yl)methyl]-6-[2-(4-methylpiperazin-1-yl)pyridin-4-yl]-1-(propan-2-yl)-1H-indazole-4-carboxamide], the “apoptotic effect (sub-G1)” value (DU145 cells [1]) is reported as “failed to see an apoptotic effect”, the “depletion of H3K27me3” value (EZH2/PRC2 and H3K27me3; GSK343 at as low as 0.1 μM, 3 days) is reported as “efficient depletion of H3K27me3” and the IFNGR1 expression ([2]; GSK343 up to 2.5 μM for 3 days) is reported as “did not show an induction of IFNGR1”.

For `O=C(CCCCCCC(=O)Nc1ccccc1)NO` [SAHA], the “apoptosis (sub-G1) with other epigenetic compounds” value (DU145 cells [1]) was “did not give rise to such a response”.

With `CC(/C=C/C(=O)NO)=C\[C@@H](C)C(=O)c1ccc(N(C)C)cc1` [TSA] the “apoptosis (sub-G1) with other epigenetic compounds” value (DU145 cells [1]) was “did not give rise to such a response”.

With “MYC knockdown: MYC siRNA: 5′-UCCUGAGACAGAUCAGCAACAACCG-3′ (SEQ ID NO:2) (other strand not given here)” the “cell growth after knockdown” value (LNCaP cells) was “no such an effect was seen”, the “apoptosis (sub-G1) after knockdown” value (DU145 cells [1]; siRNA knockdown in combination with IFN-γ) was “apoptosis induction” and the “cell growth after knockdown” value (DU145 cells [3]) was “remarkable synergy in cell growth regression”. The “EZH2 expression after knockdown” value (EZH2/PRC2 and H3K27me3) was “decreased EZH2 expression”.

B1: IFN-γ: human recombinant IFN-γ purchased from Sigma; enhancer of interferon-gamma receptor activity (protein)
chain: QDPYVKEAENLKKYFNAGHSDVADNGTLFLGILKNWKEESDRKIMQSQIVSFYFKLFKNFKDDQSIQKSVETIKEDMNVKFFNSNKKKRDDFEKLTNYSVTDLNVQRKAIHELIQVMAELSPAAKTGKRKRSQMLFRGRRASQ
In the case of B1, the xenograft tumor growth (DU145 xenograft tumor) is reported as “slowed down the tumor growth”.
